Assay results: ChEMBL document CHEMBL3745645, “Synthesis, in vitro antitumor activity, dihydrofolate reductase inhibition, DNA intercalation and structure-activity relationship studies of 1,3,5-triazine analogues” (Bioorg Med Chem Lett, 2016)
Active and inactive are the calls of the source. The calls are words filed in the database; no cut-off is given here.

Key:
Type in all cases: functional
[1] = Cytotoxicity against human SNB19 cells at 10 uM after 48 hrs by SRB assay; details: SNB-19, 48 h, read-out: GI
[2] = test system: SK-MEL-28; experiment: Cytotoxicity against human SK-MEL-28 cells at 10 uM after 48 hrs by SRB assay
[3] = Cytotoxicity against human SKOV3 cells at 10 uM after 48 hrs by SRB assay; details: SK-OV-3, 48 h, read-out: GI
[4] = Cytotoxicity against human HOP92 cells at 10 uM after 48 hrs by SRB assay; details: HOP-92, 48 h, read-out: GI
[5] = test system: MCF7; experiment: Cytotoxicity against human MCF7 cells at 10 uM after 48 hrs by SRB assay; details: MCF7, 48 h, read-out: GI
[6] = test system: MDA-MB-231; experiment: Cytotoxicity against human MDA-MB-231 cells at 10 uM after 48 hrs by SRB assay; details: MDA-MB-231, 48 h, read-out: GI
[7] = test system: SN12C; experiment: Cytotoxicity against human SN12C cells at 10 uM after 48 hrs by SRB assay; details: read-out: GI
[8] = test system: SW-620; experiment: Cytotoxicity against human SW620 cells at 10 uM after 48 hrs by SRB assay
[9] = test system: CAKI-1; experiment: Cytotoxicity against human Caki1 cells at 10 uM after 48 hrs by SRB assay
[10] = test system: KM12; experiment: Cytotoxicity against human KM12 cells at 10 uM after 48 hrs by SRB assay; details: KM12, 48 h, read-out: GI
[11] = test system: ACHN; experiment: Cytotoxicity against human ACHN cells at 10 uM after 48 hrs by SRB assay; details: read-out: GI
[12] = test system: NCI-H322M; experiment: Cytotoxicity against human NCI-H322M cells at 10 uM after 48 hrs by SRB assay; details: read-out: GI
[13] = Cytotoxicity against human UO31 cells at 10 uM after 48 hrs by SRB assay; details: UO-31, 48 h, read-out: GI
[14] = test system: TK-10; experiment: Cytotoxicity against human TK10 cells at 10 uM after 48 hrs by SRB assay
[15] = Cytotoxicity against human SF295 cells at 10 uM after 48 hrs by SRB assay; details: SF-295, 48 h, read-out: GI
[16] = test system: HT-29; experiment: Cytotoxicity against human HT-29 cells at 10 uM after 48 hrs by SRB assay; details: HT-29, 48 h, read-out: GI
[17] = test system: CCRF-CEM; experiment: Cytotoxicity against human CCRF-CEM cells at 10 uM after 48 hrs by SRB assay; details: read-out: GI
[18] = test system: T47D; experiment: Cytotoxicity against human T47D cells at 10 uM after 48 hrs by SRB assay; details: read-out: GI
[19] = Cytotoxicity against human HCT15 cells at 10 uM after 48 hrs by SRB assay; details: HCT-15, 48 h, read-out: GI
[20] = test system: NCI-H226; experiment: Cytotoxicity against human NCI-H226 cells at 10 uM after 48 hrs by SRB assay; details: NCI-H226, 48 h, read-out: GI
[21] = test system: U-251; experiment: Cytotoxicity against human U251 cells at 10 uM after 48 hrs by SRB assay; details: U-251, 48 h, read-out: GI
[22] = test system: BT-549; experiment: Cytotoxicity against human BT549 cells at 10 uM after 48 hrs by SRB assay
[23] = test system: 786-0; experiment: Cytotoxicity against human 786-0 cells at 10 uM after 48 hrs by SRB assay
[24] = Cytotoxicity against human HCT116 cells at 10 uM after 48 hrs by SRB assay; details: HCT-116, 48 h, read-out: GI
[25] = test system: RXF 393; experiment: Cytotoxicity against human RXF393 cells at 10 uM after 48 hrs by SRB assay
[26] = test system: UACC-257; experiment: Cytotoxicity against human UACC257 cells at 10 uM after 48 hrs by SRB assay
[27] = test system: NCI-H522; experiment: Cytotoxicity against human NCI-H522 cells at 10 uM after 48 hrs by SRB assay; details: NCI-H522, 48 h, read-out: GI
[28] = Cytotoxicity against human OVCAR3 cells at 10 uM after 48 hrs by SRB assay; details: OVCAR-3, 48 h, read-out: GI
[29] = test system: MDA-MB-435; experiment: Cytotoxicity against human MDA-MB-435 cells at 10 uM after 48 hrs by SRB assay; details: MDA-MB-435, 48 h, read-out: GI
[30] = Cytotoxicity against human IGROV1 cells at 10 uM after 48 hrs by SRB assay; details: IGROV-1, 48 h, read-out: GI
[31] = Cytotoxicity against human SNB75 cells at 10 uM after 48 hrs by SRB assay; details: SNB-75, 48 h, read-out: GI
[32] = Cytotoxicity against human SF268 cells at 10 uM after 48 hrs by SRB assay; details: SF-268, 48 h, read-out: GI
[33] = test system: SK-MEL-5; experiment: Cytotoxicity against human SK-MEL-5 cells at 10 uM after 48 hrs by SRB assay; details: SK-MEL-5, 48 h, read-out: GI
[34] = test system: A549; experiment: Cytotoxicity against human A549 cells at 10 uM after 48 hrs by SRB assay; details: A549, 48 h, read-out: GI
[35] = Cytotoxicity against human HL-60(TB) cells at 10 uM after 48 hrs by SRB assay; details: HL-60, 48 h, read-out: GI
[36] = test system: M14; experiment: Cytotoxicity against human M14 cells at 10 uM after 48 hrs by SRB assay; details: M14, 48 h, read-out: GI
[37] = test system: SR; experiment: Cytotoxicity against human SR cells at 10 uM after 48 hrs by SRB assay; details: read-out: GI
[38] = test system: OVCAR-5; experiment: Cytotoxicity against human OVCAR5 cells at 10 uM after 48 hrs by SRB assay
[39] = Cytotoxicity against human NCI-ADR-RES cells at 10 uM after 48 hrs by SRB assay; details: read-out: GI
[40] = Cytotoxicity against human LOXIMVI cells at 10 uM after 48 hrs by SRB assay; details: LOX IMVI, read-out: GI
[41] = test system: HCC 2998; experiment: Cytotoxicity against human HCC2998 cells at 10 uM after 48 hrs by SRB assay
[42] = Cytotoxicity against human RPMI8226 cells at 10 uM after 48 hrs by SRB assay; details: RPMI-8226, 48 h, read-out: GI
[43] = test system: SK-MEL-2; experiment: Cytotoxicity against human SK-MEL-2 cells at 10 uM after 48 hrs by SRB assay
[44] = test system: NCI-H460; experiment: Cytotoxicity against human NCI-H460 cells at 10 uM after 48 hrs by SRB assay; details: NCI-H460, 48 h, read-out: GI
[45] = test system: A498; experiment: Cytotoxicity against human A498 cells at 10 uM after 48 hrs by SRB assay; details: A498, 48 h, read-out: GI
[46] = Cytotoxicity against human MOLT4 cells at 10 uM after 48 hrs by SRB assay; details: MOLT-4, 48 h, read-out: GI
[47] = Cytotoxicity against human HOP62 cells at 10 uM after 48 hrs by SRB assay; details: HOP-62, 48 h, read-out: GI
[48] = Cytotoxicity against human DU145 cells at 10 uM after 48 hrs by SRB assay; details: DU-145, 48 h, read-out: GI
[49] = test system: Malme-3M; experiment: Cytotoxicity against human MALME-3M cells at 10 uM after 48 hrs by SRB assay; details: read-out: GI
[50] = test system: MDA-MB-468; experiment: Cytotoxicity against human MDA-MB-468 cells at 10 uM after 48 hrs by SRB assay
[51] = test system: SF-539; experiment: Cytotoxicity against human SF539 cells at 10 uM after 48 hrs by SRB assay
[52] = Cytotoxicity against human Hs 578T cells at 10 uM after 48 hrs by SRB assay; details: read-out: GI
[53] = Cytotoxicity against human COLO205 cells at 10 uM after 48 hrs by SRB assay; details: COLO 205, 48 h, read-out: GI
[54] = Cytotoxicity against human OVCAR4 cells at 10 uM after 48 hrs by SRB assay; details: OVCAR-4, 48 h, read-out: GI
[55] = test system: K562; experiment: Cytotoxicity against human K562 cells at 10 uM after 48 hrs by SRB assay; details: K562, 48 h, read-out: GI
[56] = Cytotoxicity against human OVCAR8 cells at 10 uM after 48 hrs by SRB assay; details: OVCAR-8, 48 h, read-out: GI

In the case of `Cc1nc2cc(Nc3nc(Nc4ccc(F)cc4)nc(Nc4ncccn4)n3)ccc2n1Cc1ccccc1`, the inhibition of growth at 10 µM [1] is reported as 7.38%, the “growth inhibition (GI)” value [2] is reported as “inactive” and the inhibition of growth at 10 µM [3] is reported as 2.64%. The inhibition of growth at 10 µM [4] was 18.4%, the inhibition of growth at 10 µM [5] was 20.1% and the inhibition of growth at 10 µM [6] was 7.37%. For the same molecule, the inhibition of growth at 10 µM [7] was 8.42%, the “growth inhibition (GI)” value [8] was “inactive” and the “growth inhibition (GI)” value [9] was “inactive”. It also gave an inhibition of growth at 10 µM [10] of 11.6%, an inhibition of growth at 10 µM [11] of 1.6% and an inhibition of growth at 10 µM [12] of 5.47%. For the same molecule, the inhibition of growth at 10 µM [13] was 27%, the “growth inhibition (GI)” value [14] was “inactive” and the inhibition of growth at 10 µM [15] was 15.6%. For the same molecule, the inhibition of growth at 10 µM [16] was 14.8%, the inhibition of growth at 10 µM [17] was 63.2% and the inhibition of growth at 10 µM [18] was 25.1%. The inhibition of growth at 10 µM [19] was 12.7%, the inhibition of growth at 10 µM [20] was 11.5% and the inhibition of growth at 10 µM [21] was 13.2%. The “growth inhibition (GI)” value [22] was “inactive”, the “growth inhibition (GI)” value [23] was “inactive” and the inhibition of growth at 10 µM [24] was 15.8%. The “growth inhibition (GI)” value [25] was “inactive”, the “growth inhibition (GI)” value [26] was “inactive” and the inhibition of growth at 10 µM [27] was 22.5%. For the same molecule, the inhibition of growth at 10 µM [28] was 9.64%, the inhibition of growth at 10 µM [29] was 9.24% and the inhibition of growth at 10 µM [30] was 24%. The inhibition of growth at 10 µM [31] was 15.6%, the inhibition of growth at 10 µM [32] was 11.2% and the inhibition of growth at 10 µM [33] was 6.35%. For the same molecule, the inhibition of growth at 10 µM [34] was 17.8%, the inhibition of growth at 10 µM [35] was 30.1% and the inhibition of growth at 10 µM [36] was 5.65%. For the same molecule, the inhibition of growth at 10 µM [37] was 51.6%, the “growth inhibition (GI)” value [38] was “inactive” and the inhibition of growth at 10 µM [39] was 10.5%. For the same molecule, the inhibition of growth at 10 µM [40] was 3.01%, the “growth inhibition (GI)” value [41] was “inactive” and the inhibition of growth at 10 µM [42] was 57.4%. The “growth inhibition (GI)” value [43] was “inactive”, the inhibition of growth at 10 µM [44] was 5.2% and the inhibition of growth at 10 µM [45] was 11.5%. It also gave an inhibition of growth at 10 µM [46] of 44.6%, an inhibition of growth at 10 µM [47] of 2.38% and an inhibition of growth at 10 µM [48] of 4.12%. The inhibition of growth at 10 µM [49] was 7.94%, the “growth inhibition (GI)” value [50] was “inactive” and the “growth inhibition (GI)” value [51] was “inactive”. The inhibition of growth at 10 µM [52] was 20.9%, the inhibition of growth at 10 µM [53] was 10.5% and the inhibition of growth at 10 µM [54] was 20.2%. It also gave an inhibition of growth at 10 µM [55] of 41.3% and an inhibition of growth at 10 µM [56] of 8.83%.
